How the values were obtained:
[1] = test system: U266 cells; test: Cell viability (Cell Titer Glo), U266; assay type: cell-based, human; details: 72 hours
Description: Western blotting was performed as previously described (Battle T E, Arbiser J, & Frank D A (2005) The natural product honokiol induces caspase dependent apoptosis in B-cell chronic lymphocytic leukemia (B-CLL) cells. Blood 106(2):690-697). Antibodies to phospho-MAPK (9101), total MAPK (9102), phospho-Y705 STAT3 (9131), phospho-S6 (2215), total S6 (2217), phospho-4E-BP1 (9451), total 4E-BP1 (9644), total RSK (9355), phospho-S6K (9234, 85 used at 1:5000), total S6K (2708), phospho-eIF2α (9721, used at 1:1000), total eIF2α (5324), ATF4 (11815, used at 1:1000), PDGFRβ (3169), IGF1Rβ (9750), EGFR (2232), and HER2 (2242) were from Cell Signaling Technology. Phospho-RSK antibody was from R&D (AF889). Antibodies to total STAT3 (sc-482) and gp130 (sc-656, used at 1:1000) were from Santa Cruz Biotechnology. Phospho-S727 STAT3 antibody was described previously (229). REDD1 antibody was from Proteintech (10638-1-AP, used at 1:1000). Antibody recognizing full-length and cleaved ATF6 was from Abcam (ab122897, used at 1:1000). Antibodies to tubulin (T5168) and beta actin (A5316) were from Sigma. All antibodies were used at 1:10000 dilution for western blot unless otherwise noted. […] Cell viability was measured as ATP-dependent luminescence by Cell Titer Glo (Promega). […]

[2] = test system: gp130; test: Western blot of total gp130; assay type: cell-based
Description: Western blotting was performed as previously described (Battle T E, Arbiser J, & Frank D A (2005) The natural product honokiol induces caspase dependent apoptosis in B-cell chronic lymphocytic leukemia (B-CLL) cells. Blood 106(2):690-697). Antibodies to phospho-MAPK (9101), total MAPK (9102), phospho-Y705 STAT3 (9131), phospho-S6 (2215), total S6 (2217), phospho-4E-BP1 (9451), total 4E-BP1 (9644), total RSK (9355), phospho-S6K (9234, 85 used at 1:5000), total S6K (2708), phospho-eIF2α (9721, used at 1:1000), total eIF2α (5324), ATF4 (11815, used at 1:1000), PDGFRβ (3169), IGF1Rβ (9750), EGFR (2232), and HER2 (2242) were from Cell Signaling Technology. Phospho-RSK antibody was from R&D (AF889). Antibodies to total STAT3 (sc-482) and gp130 (sc-656, used at 1:1000) were from Santa Cruz Biotechnology. […] Cell viability was measured as ATP-dependent luminescence by Cell Titer Glo (Promega).
Since atovaquone reduced gp130 expression at the cell surface, it was asked whether this effect was accompanied by reduced total gp130 in the cell. To address this question, a time course of atovaquone treatment was performed and total cellular gp130 was measured by Western blotting in U266 cells treated with atovaquone at 20 μM. […]
MEF, MDA-MB-468, and SKBR3 cells were treated with atovaquone (25 μM) for 6 or 12 hours, then analyzed by Western blot for expression of gp130 and various other receptors. […]

Structure (SMILES): O=C1C(O)=C([C@H]2CC[C@H](c3ccc(Cl)cc3)CC2)C(=O)c2ccccc21 [atovaquone, trans-2-[4-(4-chlorophenyl)cyclohexyl]-3-hydroxy-1,4-naphthalenedione]
- viability of U266 cells [1]: killed
- total gp130 in other cell lines ([2]; MEF, SKBR3, MDA-MB-468, 25 μM, 6 or 12 hours): induced loss of total gp130 after prolonged treatment
- total cellular gp130, time course ([2]; U266, 20 μM): not reduced except at much longer time points

Source: patent US10130590B2, “Methods of treating cancer with atovaquone-related compounds” (DANA-FARBER CANCER INSTITUTE, INC., priority 2013, dated 2018)
